What was measured:
GCK [1] = target: T1, GCK (Homo sapiens, UniProt Q12851); assay: Inhibitory activity against GCK kinase (IC50); type: biochemical
T1 sequence (Q12851 1-820): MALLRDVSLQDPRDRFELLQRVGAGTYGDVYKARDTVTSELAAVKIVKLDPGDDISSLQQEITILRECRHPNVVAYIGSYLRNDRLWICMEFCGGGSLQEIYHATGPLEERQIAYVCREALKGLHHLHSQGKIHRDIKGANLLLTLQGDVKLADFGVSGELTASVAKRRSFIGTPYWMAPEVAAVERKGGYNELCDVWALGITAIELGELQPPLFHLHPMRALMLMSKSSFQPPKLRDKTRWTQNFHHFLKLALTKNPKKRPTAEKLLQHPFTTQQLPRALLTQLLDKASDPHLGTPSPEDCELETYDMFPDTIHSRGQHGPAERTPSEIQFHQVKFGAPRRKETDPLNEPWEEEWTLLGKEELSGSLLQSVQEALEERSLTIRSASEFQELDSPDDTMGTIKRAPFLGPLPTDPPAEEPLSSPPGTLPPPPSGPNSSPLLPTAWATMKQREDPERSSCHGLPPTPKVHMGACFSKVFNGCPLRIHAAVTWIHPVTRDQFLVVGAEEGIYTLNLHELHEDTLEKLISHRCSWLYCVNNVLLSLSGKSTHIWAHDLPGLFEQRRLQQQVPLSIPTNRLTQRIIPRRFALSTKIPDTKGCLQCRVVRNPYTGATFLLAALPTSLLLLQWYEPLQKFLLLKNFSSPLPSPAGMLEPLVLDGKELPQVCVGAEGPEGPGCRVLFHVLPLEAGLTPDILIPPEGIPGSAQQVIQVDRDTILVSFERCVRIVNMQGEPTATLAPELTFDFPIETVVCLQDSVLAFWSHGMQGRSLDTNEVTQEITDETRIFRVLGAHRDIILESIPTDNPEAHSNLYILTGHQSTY
Method: The inhibitory activities of the compounds of the present disclosure against two kinases, GCK and ACK1, were measured, and the IC50 values thereof were calculated.

Ba/F3 (N-Ras G12D) = assay: Proliferation inhibitory activity, Ba/F3 N-Ras G12D; type: cell-based; details: Mus musculus, BaF3
Method: The inhibitory activities of the compounds of the present disclosure against the proliferation of the mt-NRAS (G12D) Ba/F3 and OCI-AML3 (mt-NRAS) cell lines were measured and the GI50 values thereof were calculated.

ABL1 = ABL1 (Homo sapiens, UniProt P00519); assay: Kinase panel biochemical assay, ABL1; details: single concentration of 1 μM, read-out: percent inhibition of kinase
Method: (§1) As a test compound, Compound No. 55 was used. The percent inhibition of each kinase when treated with the test compound at a single concentration of 1 μM was measured, and the residual enzyme activity values (%) of the kinases were calculated. Kinases whose calculated residual enzyme activity values (%) was 30% or less (i.e., kinases inhibited by 70% or more) are as follows: […]

ACK1 = ACK1 (Homo sapiens, UniProt Q07912); assay: Kinase panel biochemical assay, ACK1; details: single concentration of 1 μM, read-out: percent inhibition of kinase
Method: as §1

ARAF = ARAF (Homo sapiens, UniProt P10398); assay: Kinase panel biochemical assay, ARAF; details: single concentration of 1 μM, read-out: percent inhibition of kinase
Method: as §1

EPHA1 = EPHA1 (Homo sapiens, UniProt P21709); assay: Kinase panel biochemical assay, EPHA1; details: single concentration of 1 μM, read-out: percent inhibition of kinase
Method: as §1

EPHA6 = EPHA6 (Homo sapiens, UniProt Q9UF33); assay: Kinase panel biochemical assay, EPHA6; details: single concentration of 1 μM, read-out: percent inhibition of kinase
Method: as §1

EPHA8 = EPHA8 (Homo sapiens, UniProt P29322); assay: Kinase panel biochemical assay, EPHA8; details: single concentration of 1 μM, read-out: percent inhibition of kinase
Method: as §1

FGFR1 = FGFR1 (Homo sapiens, UniProt P11362); assay: Kinase panel biochemical assay, FGFR1; details: single concentration of 1 μM, read-out: percent inhibition of kinase
Method: as §1

FGFR2 = FGFR2 (Homo sapiens, UniProt P21802); assay: Kinase panel biochemical assay, FGFR2; details: single concentration of 1 μM, read-out: percent inhibition of kinase
Method: as §1

FGFR4 = FGFR4 (Homo sapiens, UniProt P22455); assay: Kinase panel biochemical assay, FGFR4; details: single concentration of 1 μM, read-out: percent inhibition of kinase
Method: as §1

FMS = FMS (Homo sapiens, UniProt P07333); assay: Kinase panel biochemical assay, FMS; details: single concentration of 1 μM, read-out: percent inhibition of kinase
Method: as §1

FRK = FRK (Homo sapiens, UniProt P42685); assay: Kinase panel biochemical assay, FRK; details: single concentration of 1 μM, read-out: percent inhibition of kinase
Method: as §1

GCK [2] = target: T1, GCK; assay: Kinase panel biochemical assay, GCK; details: single concentration of 1 μM, read-out: percent inhibition of kinase
Method: as §1

HCK = HCK (Homo sapiens, UniProt P08631); assay: Kinase panel biochemical assay, HCK; details: single concentration of 1 μM, read-out: percent inhibition of kinase
Method: as §1

JAK1 = JAK1 (Homo sapiens, UniProt P23458); assay: Kinase panel biochemical assay, JAK1; details: single concentration of 1 μM, read-out: percent inhibition of kinase
Method: as §1

KHS = KHS (Homo sapiens, UniProt Q9Y4K4); assay: Kinase panel biochemical assay, KHS; details: single concentration of 1 μM, read-out: percent inhibition of kinase
Method: as §1

LYNB = LYNB (Homo sapiens, UniProt P07948); assay: Kinase panel biochemical assay, LYNB; details: single concentration of 1 μM, read-out: percent inhibition of kinase
Method: as §1

p38a = p38a (Homo sapiens, UniProt Q16539); assay: Kinase panel biochemical assay, p38a; details: single concentration of 1 μM, read-out: percent inhibition of kinase
Method: as §1

PDGFRa = PDGFRa (Homo sapiens, UniProt P16234); assay: Kinase panel biochemical assay, PDGFRa; details: single concentration of 1 μM, read-out: percent inhibition of kinase
Method: as §1

PDGFRb = PDGFRb (Homo sapiens, UniProt P09619); assay: Kinase panel biochemical assay, PDGFRb; details: single concentration of 1 μM, read-out: percent inhibition of kinase
Method: as §1

PEAK1 = PEAK1 (Homo sapiens, UniProt Q9H792); assay: Kinase panel biochemical assay, PEAK1; details: single concentration of 1 μM, read-out: percent inhibition of kinase
Method: as §1

RET = RET (Homo sapiens, UniProt P07949); assay: Kinase panel biochemical assay, RET; details: single concentration of 1 μM, read-out: percent inhibition of kinase
Method: as §1

TAOK2 = TAOK2 (Homo sapiens, UniProt Q9UL54); assay: Kinase panel biochemical assay, TAOK2; details: single concentration of 1 μM, read-out: percent inhibition of kinase
Method: as §1

TXK = TXK (Homo sapiens, UniProt P42681); assay: Kinase panel biochemical assay, TXK; details: single concentration of 1 μM, read-out: percent inhibition of kinase
Method: as §1

TYK2 = TYK2 (Homo sapiens, UniProt P29597); assay: Kinase panel biochemical assay, TYK2; details: single concentration of 1 μM, read-out: percent inhibition of kinase
Method: as §1

YES = YES (Homo sapiens, UniProt P07947); assay: Kinase panel biochemical assay, YES; details: single concentration of 1 μM, read-out: percent inhibition of kinase
Method: as §1

YSK4 = YSK4 (Homo sapiens, UniProt Q56UN5); assay: Kinase panel biochemical assay, YSK4; details: single concentration of 1 μM, read-out: percent inhibition of kinase
Method: as §1

p38a, sequence (Q16539 whole entry): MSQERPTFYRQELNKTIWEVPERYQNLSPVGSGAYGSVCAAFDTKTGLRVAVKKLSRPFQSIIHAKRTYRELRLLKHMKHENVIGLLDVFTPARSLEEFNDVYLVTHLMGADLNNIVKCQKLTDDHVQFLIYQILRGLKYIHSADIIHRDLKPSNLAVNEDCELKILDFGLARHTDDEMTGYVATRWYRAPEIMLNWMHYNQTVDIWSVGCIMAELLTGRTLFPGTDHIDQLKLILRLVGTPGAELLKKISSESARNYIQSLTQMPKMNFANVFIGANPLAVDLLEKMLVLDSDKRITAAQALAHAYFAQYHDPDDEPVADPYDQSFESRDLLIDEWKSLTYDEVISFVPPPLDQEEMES
FGFR2, sequence (P21802 22-821): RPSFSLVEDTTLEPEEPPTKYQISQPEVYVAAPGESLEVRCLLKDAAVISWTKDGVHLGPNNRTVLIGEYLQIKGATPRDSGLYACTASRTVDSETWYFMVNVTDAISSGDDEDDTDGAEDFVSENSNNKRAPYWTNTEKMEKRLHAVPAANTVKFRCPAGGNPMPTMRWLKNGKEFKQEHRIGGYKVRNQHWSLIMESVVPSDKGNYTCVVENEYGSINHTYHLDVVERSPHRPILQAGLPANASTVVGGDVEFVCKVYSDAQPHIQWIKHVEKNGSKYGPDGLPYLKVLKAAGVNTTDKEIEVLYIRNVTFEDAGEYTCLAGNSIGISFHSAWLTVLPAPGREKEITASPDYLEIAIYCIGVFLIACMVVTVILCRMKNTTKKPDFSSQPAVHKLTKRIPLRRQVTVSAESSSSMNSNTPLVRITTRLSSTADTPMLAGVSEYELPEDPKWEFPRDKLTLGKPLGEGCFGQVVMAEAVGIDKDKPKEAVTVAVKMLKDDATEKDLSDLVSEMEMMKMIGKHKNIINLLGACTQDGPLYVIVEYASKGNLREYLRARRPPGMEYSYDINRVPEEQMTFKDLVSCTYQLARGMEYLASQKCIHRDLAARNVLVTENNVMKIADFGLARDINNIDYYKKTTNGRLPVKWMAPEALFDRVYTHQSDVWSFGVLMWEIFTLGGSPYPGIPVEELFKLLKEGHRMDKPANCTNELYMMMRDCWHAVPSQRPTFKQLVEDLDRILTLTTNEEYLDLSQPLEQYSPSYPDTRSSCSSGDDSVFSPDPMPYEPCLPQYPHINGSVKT
PDGFRa, sequence (P16234 24-1089): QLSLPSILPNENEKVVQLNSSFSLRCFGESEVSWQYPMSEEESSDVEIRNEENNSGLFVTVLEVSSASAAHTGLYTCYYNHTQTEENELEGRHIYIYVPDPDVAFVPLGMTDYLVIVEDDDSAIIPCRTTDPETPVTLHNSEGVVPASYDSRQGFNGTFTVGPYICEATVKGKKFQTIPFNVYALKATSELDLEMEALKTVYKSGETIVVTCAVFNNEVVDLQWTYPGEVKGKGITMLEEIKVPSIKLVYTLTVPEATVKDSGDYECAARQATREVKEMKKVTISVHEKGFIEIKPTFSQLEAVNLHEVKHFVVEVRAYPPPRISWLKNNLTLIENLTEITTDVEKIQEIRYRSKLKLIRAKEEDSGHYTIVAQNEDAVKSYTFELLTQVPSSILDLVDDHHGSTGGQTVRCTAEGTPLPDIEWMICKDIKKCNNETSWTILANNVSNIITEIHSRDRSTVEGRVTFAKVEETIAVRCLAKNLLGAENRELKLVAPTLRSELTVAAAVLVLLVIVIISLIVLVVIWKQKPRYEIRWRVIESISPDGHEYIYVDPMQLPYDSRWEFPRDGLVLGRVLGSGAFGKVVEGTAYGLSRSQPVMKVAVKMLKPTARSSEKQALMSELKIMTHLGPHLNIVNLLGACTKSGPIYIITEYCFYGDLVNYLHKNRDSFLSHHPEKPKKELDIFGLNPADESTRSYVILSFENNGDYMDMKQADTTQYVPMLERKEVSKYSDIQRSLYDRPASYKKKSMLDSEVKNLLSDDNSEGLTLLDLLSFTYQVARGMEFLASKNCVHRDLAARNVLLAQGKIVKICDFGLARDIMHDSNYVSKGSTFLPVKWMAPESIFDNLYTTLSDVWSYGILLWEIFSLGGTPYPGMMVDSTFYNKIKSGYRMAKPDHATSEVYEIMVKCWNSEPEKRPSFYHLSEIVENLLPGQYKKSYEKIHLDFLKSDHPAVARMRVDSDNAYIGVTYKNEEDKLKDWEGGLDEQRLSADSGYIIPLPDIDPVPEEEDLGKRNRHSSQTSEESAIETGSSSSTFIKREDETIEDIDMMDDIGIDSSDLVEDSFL
HCK, sequence (P08631 whole entry): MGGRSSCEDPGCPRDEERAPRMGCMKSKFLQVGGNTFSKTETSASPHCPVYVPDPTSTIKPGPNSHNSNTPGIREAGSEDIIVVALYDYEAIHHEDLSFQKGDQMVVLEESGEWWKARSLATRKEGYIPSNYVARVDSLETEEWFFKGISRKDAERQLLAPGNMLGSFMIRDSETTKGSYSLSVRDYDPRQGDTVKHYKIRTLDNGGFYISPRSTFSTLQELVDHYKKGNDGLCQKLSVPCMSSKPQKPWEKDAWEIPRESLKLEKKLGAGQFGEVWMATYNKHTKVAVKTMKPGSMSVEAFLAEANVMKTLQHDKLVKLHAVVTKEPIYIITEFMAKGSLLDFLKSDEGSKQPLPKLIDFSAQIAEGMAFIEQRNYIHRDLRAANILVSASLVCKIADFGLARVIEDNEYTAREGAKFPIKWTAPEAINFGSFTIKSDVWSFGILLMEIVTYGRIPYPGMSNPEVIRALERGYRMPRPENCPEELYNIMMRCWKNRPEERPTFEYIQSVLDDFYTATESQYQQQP
EPHA1, sequence (P21709 26-976): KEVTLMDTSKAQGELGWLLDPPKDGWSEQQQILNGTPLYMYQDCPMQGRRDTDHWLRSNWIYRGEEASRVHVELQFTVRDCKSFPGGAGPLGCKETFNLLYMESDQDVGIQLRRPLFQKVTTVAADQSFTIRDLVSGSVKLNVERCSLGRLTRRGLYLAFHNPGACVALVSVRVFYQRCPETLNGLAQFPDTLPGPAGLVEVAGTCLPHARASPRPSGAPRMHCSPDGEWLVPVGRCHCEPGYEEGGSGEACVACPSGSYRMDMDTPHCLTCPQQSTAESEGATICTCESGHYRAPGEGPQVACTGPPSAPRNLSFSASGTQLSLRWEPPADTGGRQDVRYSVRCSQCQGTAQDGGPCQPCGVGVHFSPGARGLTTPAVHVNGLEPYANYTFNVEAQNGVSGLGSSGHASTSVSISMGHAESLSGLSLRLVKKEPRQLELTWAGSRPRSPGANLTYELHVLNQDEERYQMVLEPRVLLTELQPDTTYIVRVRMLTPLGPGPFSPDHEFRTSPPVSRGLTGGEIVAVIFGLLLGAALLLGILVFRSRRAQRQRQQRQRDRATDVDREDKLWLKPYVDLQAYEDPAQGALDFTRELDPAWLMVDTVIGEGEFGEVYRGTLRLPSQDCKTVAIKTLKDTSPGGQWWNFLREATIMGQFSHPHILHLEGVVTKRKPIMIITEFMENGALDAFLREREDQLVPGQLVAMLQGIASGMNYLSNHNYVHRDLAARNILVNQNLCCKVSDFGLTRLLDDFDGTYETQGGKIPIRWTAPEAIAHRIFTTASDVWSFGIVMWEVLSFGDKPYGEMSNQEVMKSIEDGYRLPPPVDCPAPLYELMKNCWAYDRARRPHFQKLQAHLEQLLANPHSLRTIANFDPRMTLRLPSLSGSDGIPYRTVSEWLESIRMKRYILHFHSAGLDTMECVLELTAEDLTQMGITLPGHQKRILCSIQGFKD
ARAF, sequence (P10398 whole entry): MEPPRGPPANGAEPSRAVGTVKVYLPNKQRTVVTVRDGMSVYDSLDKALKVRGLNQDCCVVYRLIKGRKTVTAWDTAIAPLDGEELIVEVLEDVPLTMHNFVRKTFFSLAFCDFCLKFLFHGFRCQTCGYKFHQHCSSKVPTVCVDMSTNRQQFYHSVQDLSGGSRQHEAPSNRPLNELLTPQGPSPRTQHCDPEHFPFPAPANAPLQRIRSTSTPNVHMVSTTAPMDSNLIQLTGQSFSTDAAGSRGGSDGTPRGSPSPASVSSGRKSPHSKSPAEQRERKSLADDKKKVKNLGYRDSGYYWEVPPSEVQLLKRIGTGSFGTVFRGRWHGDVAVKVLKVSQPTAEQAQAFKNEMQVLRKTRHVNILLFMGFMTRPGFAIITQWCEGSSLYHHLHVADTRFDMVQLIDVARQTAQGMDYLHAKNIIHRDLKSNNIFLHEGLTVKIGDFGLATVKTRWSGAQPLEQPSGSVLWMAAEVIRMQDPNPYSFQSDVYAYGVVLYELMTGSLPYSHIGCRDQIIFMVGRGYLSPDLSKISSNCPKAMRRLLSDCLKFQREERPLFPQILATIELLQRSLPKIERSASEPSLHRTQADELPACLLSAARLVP
LYNB, sequence (P07948 1-491 isoform P07948-2): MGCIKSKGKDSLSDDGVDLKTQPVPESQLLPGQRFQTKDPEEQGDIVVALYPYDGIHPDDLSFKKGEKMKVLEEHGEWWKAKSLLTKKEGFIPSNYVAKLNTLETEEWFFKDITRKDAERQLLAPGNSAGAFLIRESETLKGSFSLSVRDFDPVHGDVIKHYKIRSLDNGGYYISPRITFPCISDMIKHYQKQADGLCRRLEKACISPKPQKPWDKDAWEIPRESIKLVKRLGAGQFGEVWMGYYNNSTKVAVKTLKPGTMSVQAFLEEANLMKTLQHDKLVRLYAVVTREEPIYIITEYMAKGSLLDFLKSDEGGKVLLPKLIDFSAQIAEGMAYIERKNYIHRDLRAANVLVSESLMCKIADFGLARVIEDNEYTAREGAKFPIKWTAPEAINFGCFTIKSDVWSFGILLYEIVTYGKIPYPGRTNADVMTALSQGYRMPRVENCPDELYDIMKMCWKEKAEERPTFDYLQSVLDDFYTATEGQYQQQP

IC50 (GCK [1]): 1000 to 10000 nM | GI50 (Ba/F3 (N-Ras G12D)): < 0.5 µM | inhibition at 1 µM (ABL1): ≥ 70% | inhibition at 1 µM (ACK1): ≥ 70% | inhibition at 1 µM (ARAF): ≥ 70% | inhibition at 1 µM (EPHA1): ≥ 70% | inhibition at 1 µM (EPHA6): ≥ 70% | inhibition at 1 µM (EPHA8): ≥ 70% | inhibition at 1 µM (FGFR1): ≥ 70% | inhibition at 1 µM (FGFR2): ≥ 70% | inhibition at 1 µM (FGFR4): ≥ 70% | inhibition at 1 µM (FMS): ≥ 70% | inhibition at 1 µM (FRK): ≥ 70% | inhibition at 1 µM (GCK [2]): ≥ 70% | inhibition at 1 µM (HCK): ≥ 70% | inhibition at 1 µM (JAK1): ≥ 70% | inhibition at 1 µM (KHS): ≥ 70% | inhibition at 1 µM (LYNB): ≥ 70% | inhibition at 1 µM (p38a): ≥ 70% | inhibition at 1 µM (PDGFRa): ≥ 70% | inhibition at 1 µM (PDGFRb): ≥ 70% | inhibition at 1 µM (PEAK1): ≥ 70% | inhibition at 1 µM (RET): ≥ 70% | inhibition at 1 µM (TAOK2): ≥ 70% | inhibition at 1 µM (TXK): ≥ 70% | inhibition at 1 µM (TYK2): ≥ 70% | inhibition at 1 µM (YES): ≥ 70% | inhibition at 1 µM (YSK4): ≥ 70%
SMILES: Cc1ccc(NC(=O)c2cccc(C(F)(F)F)c2)cc1-c1cc2cnc(N)nc2c(=O)[nH]1 [Compound No. 55, N-(3-(2-amino-8-oxo-7,8-dihydropyrido[3,4-d]pyrimidin-6-yl)-4-methylphenyl)-3-(trifluoromethyl)benzamide]

From patent US20260070903A1, “NOVEL PYRIDO[3,4-D]PYRIMIDIN-8-ONE DERIVATIVE HAVING PROTEIN KINASE INHIBITORY ACTIVITY, AND PHARMACEUTICAL COMPOSITION FOR PREVENTING, ALLEVIATING, OR TREATING CANCER, COMPRISING SAME” (KOREA INSTITUTE OF SCIENCE AND TECHNOLOGY, priority 2019, published 2026)
